From PubChem BioAssay AID179 (DTP/NCI, 2004)
Where “and” joins values, the source holds several entries; their conditions need not be identical. Identical values can stand only once. Calls of active or inactive are those of the source.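 How the source made its calls: active means compounds giving half or more protection of infected cells from virus-caused growth loss, again on retest; inactive means the rest.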 Where a SMILES comes first, the peptide text is derived from it.

Test system: CEM cells HIV-1 protection, formazan growth assay
Test: NCI AIDS Antiviral Assay
Settings: for IC50: measured here: growth of uninfected CEM cells
Method: The ability of compounds to protect human CEM cells from HIV-1 infection is measured as a screen for new compounds capable of inhibiting the HIV virus. Five concentrations of drug were tested on uninfected and infected cells and cell growth was measured using a soluble formazan assay. […] Compounds that provided at least 50% protection were retested. Compounds that provided at least 50% protection on retest were listed as moderately active. Compounds that reproducibly provided 100% protection were listed as confirmed active. […] Note that the inability to provide protection could be due to toxicity.

CCCCCCCCCCCCCCCCOP(=O)([O-])OCC[N+](C)(C)C
EC50: > 309 µM
IC50: 2.45 µM

C=C1CCCCCCCCCCC12SCCC2CCCCSC (stereo not given)
EC50: > 200 µM
IC50: 120 µM

O=C1Oc2ccccc2[C@@H]2[C@H]1[C@@H]1C(=O)Oc3ccccc3[C@@H]12
EC50: > 46.8 µM
IC50: > 46.8 µM

CCCCC(/C=C\COC1CCCCO1)=C/C(=O)OCC (stereo not given)
EC50: > 126 µM
IC50: 77.6 µM

COc1ccc(CC(=O)NCCc2ccc(OC)c(OC)c2)cc1Br
EC50: > 316 µM
IC50: > 316 µM

COc1ccc(C(=O)/C=C/c2ccc(OCCSCCCCCCCCCCSCCOc3ccc(/C=C/C(=O)c4ccc(OC)c(OC)c4)cc3)cc2)cc1OC
outcome: inactive

CC(C)C1=CC2=CCC3C(C)(CN)CCCC3(C)C2CC1CCN (stereo not given)
EC50: > 100 µM
IC50: 1.48 µM

O=[N+]([O-])c1ccc2oc(=Nc3ccccc3)c(Nc3ccccc3)nc2c1
EC50: > 200 µM
IC50: 166 µM

NC(=O)c1nc2ccccc2nc1Nc1ccc(Cl)cc1Cl
EC50: > 1.58 µM
IC50: > 1.58 µM

CC(C)CC(NC(=O)CN)C(=O)NC(C)C(=O)NC(C)C(=O)NC(CO)C(=O)NC(C)C(N)=O (stereo not given) (H-GLAASA-NH2; configuration not given here)
outcome: inactive

O=C1CC(C(COCc2ccccc2)OCc2ccccc2)CC(=O)N1 (stereo not given)
EC50: > 200 µM
IC50: > 200 µM

Nc1nn2c(C(Br)Br)cc(C(Br)Br)nc2c1[N+](=O)[O-]
EC50: > 200 µM
IC50: 0.525 µM

C=C(C)CC1=C(C(=S)NCCO[Si](C)(C)C(C)(C)C)C(OCC)(OCC)C1=O
EC50: > 200 µM
IC50: 11.5 µM

O=C1N(c2ccccc2)C2(O)C(=O)c3ccccc3C2(O)N1c1ccccc1 (stereo not given)
EC50: > 676 µM
IC50: 110 µM

Cc1ccccc1C(C#N)C(=O)C(=O)Nc1cccc(Cl)c1 (stereo not given)
EC50: > 417 µM
IC50: > 417 µM

COc1ccc(C2C3=C(CCCC3=O)N(c3ccccc3)C3=C2C(=O)CCC3)cc1
EC50: > 200 µM
IC50: > 200 µM

Cc1cc(NS(=O)(=O)c2ccc(NC(=O)c3ccc4[nH]c5ccccc5c(=O)c4c3)cc2)no1
EC50: > 200 µM
IC50: 93.3 µM

COc1ccccc1/C=C1\CCc2ccccc2C1=O
EC50: > 27.5 µM
IC50: 15.5 µM

COC(=O)[C@@]12CCCC(=O)[C@@H]1[C@H]1CCCC[C@H]12
EC50: > 200 µM
IC50: 110 µM

S=c1cc(-c2ccccc2)ss1
EC50: > 200 µM
IC50: 38 µM and > 200 µM

CC1=C2CC/C(C)=C/CCC3(C)OC3CC/C(C)=C/C2OC1=O (stereo not given)
EC50: > 200 µM
IC50: > 200 µM

O=[N+]([O-])c1cc([N+](=O)[O-])c(C(Cl)C(Cl)c2ccccc2)cc1C(Cl)C(Cl)c1ccccc1 (stereo not given)
EC50: > 5.25 µM
IC50: > 5.25 µM

CN1CC[C@]2(C)c3cc(O)ccc3CC3CCCC1C32C (stereo not given in full)
outcome: inactive

c1ccc(N=c2sc3ccccc3sc2=Nc2ccccc2)cc1
EC50: > 200 µM
IC50: 3.09 µM

Cc1cc(=O)[nH]c(Sc2ccc([N+](=O)[O-])cc2[N+](=O)[O-])n1
EC50: > 200 µM
IC50: 6.31 µM

Nc1ccc2c3c(ccc([N+](=O)[O-])c13)CC2
EC50: > 200 µM
IC50: 102 µM

NC1=NS(=O)(=O)N=C(N)C1=NNc1ccccc1
EC50: > 933 µM
IC50: 141 µM

N#CC12COC3(CCCCC3C1(C#N)C#N)OC2=N (stereo not given)
EC50: > 200 µM
IC50: 3.98 µM

NC(=O)C(=CNC(=S)c1ccncc1)C(N)=O
EC50: > 200 µM
IC50: > 200 µM

C=C1CC2C(=O)N(c3ccccc3)C(=O)C2CC1n1[nH]c(=O)n(Cc2ccccc2)c1=O (stereo not given)
EC50: > 219 µM
IC50: > 219 µM

COC(=O)C1C(=O)NC2(C)CC1c1ccccc1O2 (stereo not given)
outcome: inactive

Cc1ccc(N2C(=O)C3c4[nH]c5ccccc5c4C4CCC(C(C)(C)C)CC4C3C2=O)cc1 (stereo not given)
EC50: > 200 µM
IC50: 35.5 µM

CCCCCCN(CCCCCC)C(=O)C1=C(C)NC(C)=C(C(=O)N(CCCCCC)CCCCCC)C1
EC50: > 200 µM
IC50: 95.5 µM

O=C(O)c1cc2c(cn1)[nH]c1ccccc12
outcome: inactive

C=CCNc1nc2c(N)ncnc2s1
EC50: > 200 µM
IC50: > 200 µM

Fc1cccc(C2SCc3nc4cc5ccccc5cc4n32)c1 (stereo not given)
EC50: > 200 µM
IC50: > 200 µM

CC1=NC(=Cc2cc(Br)cc(Br)c2)C(=O)N1n1c(-c2ccccc2)nc2ccccc2c1=O
EC50: > 200 µM
IC50: 87.1 µM

CCCCCCCCCCCCCCCC[NH][Ge]([NH]CCCCCCCCCCCCCCCC)([NH]CCCCCCCCCCCCCCCC)[NH]CCCCCCCCCCCCCCCC
EC50: > 7.41 µM
IC50: 4.79 µM

CCOc1ccc(NC(=O)/C(CC(=O)c2c[n+](=O)c3ccccc3n2[O-])=N\OCCCc2ccccc2)cc1
EC50: > 123 µM
IC50: > 123 µM

CC12CCCCC1=[N+]([O-])C(C)(C)N2O (stereo not given)
EC50: > 200 µM
IC50: > 200 µM

CCCCC(C)CCC(=O)C1=C(O)C(CC(=O)O)OC1=O (stereo not given)
EC50: > 83.2 µM
IC50: > 83.2 µM

O=C(Nc1ccccc1F)c1c(O)nc2sccn2c1=O
EC50: > 200 µM
IC50: 51.3 µM

Cc1ccccc1[P+](Cc1ccccc1)(c1ccccc1)c1ccccc1C
EC50: > 200 µM
IC50: 0.776 µM

COc1ccc2c(c1)CCC1=C2CCS1(=O)=O
EC50: > 200 µM
IC50: > 200 µM

O=C(O)c1ccc(O)c(N=Nc2cc(S(=O)(=O)O)c3ccccc3c2O)c1
EC50: > 25.7 µM
IC50: > 25.7 µM

COC(=O)C1=C(OC)C(C(=O)OC)C23CCCC12C(C(=O)OC)C(OC)C3C(=O)OC (stereo not given)
EC50: > 135 µM
IC50: > 135 µM

CCC1C(=O)OCc2ccccc21 (stereo not given)
EC50: > 200 µM
IC50: > 200 µM

CC(C(=O)c1cc(O)c(O)cc1C(O)(C(F)(F)F)C(F)(F)F)C(O)(C(F)(F)F)C(F)(F)F (stereo not given)
EC50: 70.8 µM
IC50: > 100 µM

Cc1ccc(S(=O)(=O)NC(=O)NCCc2ccccc2)cc1
EC50: 7.08 µM
IC50: 295 µM

CC(=C\c1ccccc1)/C=C(\C#N)C(N)=O
EC50: > 200 µM
IC50: 97.7 µM

Cc1ccc(Nc2nc(C)c(C(/C=C/c3ccc4c(c3)OCO4)=N/Nc3ccc([N+](=O)[O-])cc3[N+](=O)[O-])s2)c([N+](=O)[O-])c1
EC50: > 60.3 µM
IC50: 55 µM

c1ccc(C2C3=C(CCCC3)Nc3nc4cc5ccccc5cc4n32)cc1 (stereo not given)
EC50: > 200 µM
IC50: > 200 µM

Cc1cccc([P+](Cc2ccccc2)(c2cccc(C)c2)c2cccc(C)c2)c1
EC50: > 200 µM
IC50: 0.589 µM

NNC(N)Nc1ccccc1 (stereo not given)
EC50: > 200 µM
IC50: > 200 µM

CC1C(c2ccc(Cl)cc2)c2cc3c(cc2OC1N1CCOCC1)OCO3 (stereo not given)
EC50: > 100 µM
IC50: 21.4 µM

O=C(N/N=C\c1ccc[nH]1)c1ccncc1
EC50: > 200 µM
IC50: > 200 µM

O=C(Nc1ccc(-c2ccccn2)oc1=O)c1ccccc1
EC50: > 200 µM
IC50: > 200 µM

S=C1N(c2ccc(Br)cc2)C2=Nc3ccccc3SC(=C2N=Nc2ccccc2)N1c1ccc(Cl)cc1
EC50: > 37.2 µM
IC50: 17 µM

O=c1c2c3c(sc2nc2n1N=CN(c1ccc(F)cc1)C2)CCCC3
EC50: > 200 µM
IC50: > 200 µM

Nn1c(-c2ccccc2Nc2ccccc2-c2n[nH]c(=S)n2N)n[nH]c1=S
EC50: > 50.1 µM
IC50: 6.17 µM

COc1ccc(-c2nc(-c3cnccn3)n(COCCO)n2)cc1
EC50: > 200 µM
IC50: > 200 µM

Cc1cc(NS(=O)(=O)c2ccc(NC(=O)COC(=O)c3cccc4c(=O)c5ccccc5[nH]c34)cc2)no1
outcome: inactive

COc1cc(C2C(Cl)C(=O)N2NC(=O)c2ccc(N)cc2)cc(Br)c1O (stereo not given)
EC50: > 200 µM
IC50: 13.2 µM
